Values of other authors as cited in patent publication US20050159439A1, “Management of postoperative pain” (priority 2001, published 2005).

System: subjects operated on for lumbar disc herniation
Settings: 10 mg epidural morphine, lumbar disc herniation surgery

## CN1CC[C@]23c4c5ccc(O)c4O[C@H]2[C@@H](O)C=C[C@H]3[C@H]1C5 [morphine]
  Pain relief: significant pain relief
  Side effect: urinary retention was the relevant side effect
